Some test systems named below: CAKI-1 renal; NCI-H460 lung; A498 renal; MALME-3M melanoma; UACC-257 melanoma; NCI-H226 lung; TK-10 renal.
Assay in all cases: growth of human tumour cells (NCI), 48 h

TGI and GI50 data for 27 molecules are collected here from PubChem BioAssay (NCI).

Molecules are shown by their SMILES. Where “and” joins values, the source holds several entries; their conditions need not be identical. Equal entries are not always repeated.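 Cells were grown in 96-well plates and exposed to each compound for 48 hours at five concentrations; endpoints were interpolated linearly between bracketing concentrations, or set to the highest concentration if not reached. Here, GI50 denotes the concentration required for 50% inhibition of growth. TGI marks complete inhibition of growth.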

Take `Cc1ccc2nc(NC(=O)C(=O)C(C(=O)c3ccc4ccccc4c3)C3OC(=O)c4ccccc43)sc2c1` (stereo not drawn): the TGI came to 52.3 µM with CAKI-1 renal; 18 µM with NCI-H460 lung; 21.3 µM in the experiment with A498 renal; 22.9 µM with MALME-3M melanoma; 31.8 µM in the experiment with UACC-257 melanoma; 5.43 µM in the experiment on NCI-H226 lung.
Consider `O=S(=O)(C1=CC(S(=O)(=O)c2ccccc2)COC1)c1ccccc1` (stereo not drawn), for which the TGI with CAKI-1 renal, in the experiment with NCI-H460 lung, with MALME-3M melanoma, with UACC-257 melanoma and with TK-10 renal was greater than 100 µM each time.
Turning to `c1ccc2c(c1)[nH]c1cnc3c4ncccc4[nH]c3c12`, the TGI with CAKI-1 renal, with NCI-H460 lung, in the experiment with A498 renal, in the experiment with MALME-3M melanoma, in the experiment with UACC-257 melanoma and in the experiment on NCI-H226 lung was greater than 100 µM each time. Further, in the experiment with TK-10 renal, the TGI was greater than 100 µM.
On to `CC(C)N(C(=O)C12C3C4C1C1C2C3C41C(=O)C(C)(C)C)C(C)C` (stereo not drawn), for which the TGI in the experiment with CAKI-1 renal, with A498 renal, in the experiment on MALME-3M melanoma, in the experiment with UACC-257 melanoma and in the experiment with TK-10 renal was greater than 100 µM each time.
For `Nc1cn(C2OC(CC(c3ccccc3)(c3ccccc3)c3ccccc3)C(O)C2O)c(=O)[nH]c1=O` (stereo not drawn), the TGI in the experiment on CAKI-1 renal was 57.1 µM; in the experiment with NCI-H460 lung, 39.5 µM; in the experiment on A498 renal, 95.5 µM; with MALME-3M melanoma, 55.7 µM; in the experiment on UACC-257 melanoma, 52.3 µM; in the experiment with NCI-H226 lung, greater than 100 µM. For the same molecule, the TGI with TK-10 renal was 96.2 µM.
Turning to `O=C1C=CC2(CCCCCCC2=O)CC1` (stereo not drawn), the TGI in the experiment on CAKI-1 renal, in the experiment with NCI-H460 lung, with A498 renal, in the experiment with MALME-3M melanoma, with UACC-257 melanoma and in the experiment with NCI-H226 lung was greater than 100 µM in each case. Further, the TGI in the experiment on TK-10 renal is greater than 100 µM.
With `NC1=NN(c2ccccc2)C(=O)C1C(=O)C(=O)Nc1ccc(Cl)cc1` (stereo not drawn), the TGI in the experiment on CAKI-1 renal, in the experiment with NCI-H460 lung, with A498 renal, with MALME-3M melanoma, in the experiment on UACC-257 melanoma and with NCI-H226 lung was greater than 100 µM in each case. The molecule also displayed a TGI with TK-10 renal greater than 100 µM.
Consider `Cc1noc2cccc(O)c12`, for which the TGI in the experiment with CAKI-1 renal, with NCI-H460 lung, in the experiment on A498 renal, with MALME-3M melanoma, in the experiment on UACC-257 melanoma and in the experiment with NCI-H226 lung was greater than 100 µM throughout. In the experiment on TK-10 renal, this molecule displayed a TGI greater than 100 µM.
In the case of `CC(=O)OC1C[C@H]2C(OC(=O)c3ccccc3)C3C4(OC(C)=O)COC4C[C@H](OC(C)=O)[C@@]3(C)C(OC(C)=O)[C@H](OC(C)=O)C(=C1C)C2(C)C` (stereo partly drawn), the TGI in the experiment with CAKI-1 renal was 31.4 µM; with NCI-H460 lung it was greater than 100 µM; with A498 renal, greater than 100 µM; with MALME-3M melanoma it was greater than 100 µM; in the experiment on UACC-257 melanoma it was greater than 100 µM; in the experiment on NCI-H226 lung it was greater than 100 µM. Also, in the experiment with TK-10 renal, the TGI is greater than 100 µM.
With `NC(CCSCC(F)(F)F)C(=O)O` (stereo not drawn), the TGI in the experiment on CAKI-1 renal, in the experiment on NCI-H460 lung, in the experiment with A498 renal, in the experiment on MALME-3M melanoma, in the experiment with UACC-257 melanoma and in the experiment on NCI-H226 lung was greater than 100 µM each time. Moreover, in the experiment with TK-10 renal, the TGI was greater than 100 µM.
For the molecule `O=C(CCc1nc(=S)[nH][nH]1)Nc1cc(Cl)ccc1Cl`, the TGI with CAKI-1 renal, with NCI-H460 lung, in the experiment with A498 renal, in the experiment with MALME-3M melanoma, in the experiment on UACC-257 melanoma and in the experiment on NCI-H226 lung was greater than 100 µM each time. The molecule further came in with a TGI in the experiment on TK-10 renal greater than 100 µM.
For `C/C(=C1/N=C(c2cc([N+](=O)[O-])ccc2Cl)N(c2ccc(Br)cc2)C1=O)c1ccc(N(CCC#N)CCC#N)cc1C`, the TGI was greater than 100 µM in the experiment with CAKI-1 renal; greater than 100 µM with NCI-H460 lung; 96.4 µM in the experiment on A498 renal; greater than 100 µM with MALME-3M melanoma; greater than 100 µM in the experiment on UACC-257 melanoma; greater than 100 µM with NCI-H226 lung. For the same molecule, the TGI with TK-10 renal is greater than 100 µM.
As for `O=C(Nc1cccc(C(F)(F)F)c1)C(=O)C(C(=O)c1ccc(Cl)c(Cl)c1)C1OC(=O)c2ccccc21` (stereo not drawn), the TGI in the experiment with CAKI-1 renal is greater than 100 µM; in the experiment on NCI-H460 lung it was greater than 100 µM; in the experiment on A498 renal, 79.8 µM; with MALME-3M melanoma, 76.9 µM; in the experiment on UACC-257 melanoma, greater than 100 µM; with NCI-H226 lung, 62.5 µM. The same molecule registered a TGI in the experiment with TK-10 renal greater than 100 µM.
As to `O=C1OC(CC(=O)c2ccc(F)cc2)C(Cl)=C1Cl` (stereo not drawn), the TGI in the experiment with CAKI-1 renal was determined as 92.8 µM; in the experiment with NCI-H460 lung, 52.2 µM; with MALME-3M melanoma, 33.8 µM; in the experiment on UACC-257 melanoma, 33.6 µM; with NCI-H226 lung, 33.8 µM; in the experiment on TK-10 renal, 91.1 µM.
Consider `O=C(NCCCCCCCCCCCCNC(=O)c1cnc2ccccc2n1)c1cnc2ccccc2n1`, for which the TGI with CAKI-1 renal, in the experiment with NCI-H460 lung, in the experiment on A498 renal, in the experiment on MALME-3M melanoma, in the experiment on UACC-257 melanoma and in the experiment on NCI-H226 lung was greater than 100 µM each time.
For `C/C(NNC(=O)c1ccccc1O)=C1\C=Nc2ccccc2S1`, the TGI in the experiment on CAKI-1 renal is greater than 100 µM; in the experiment with NCI-H460 lung, 24.7 µM; with A498 renal, greater than 100 µM; in the experiment on MALME-3M melanoma it was 27.6 µM; with UACC-257 melanoma, greater than 100 µM; in the experiment with NCI-H226 lung, 33.1 µM. Besides, in the experiment on TK-10 renal, the TGI was greater than 100 µM.
Turning to `COC(=O)C(=O)C(CC(=O)Nc1cc(Cl)ccc1Cl)C(=O)OC` (stereo not drawn), the TGI in the experiment with CAKI-1 renal, in the experiment with NCI-H460 lung, in the experiment with A498 renal, with MALME-3M melanoma, with UACC-257 melanoma and with NCI-H226 lung was greater than 100 µM each time. Also, the TGI with TK-10 renal is greater than 100 µM.
`C#CCN(N=O)C(=O)NC(CCCCNC(=O)OCc1ccccc1)C(=O)OCc1ccccc1` (stereo not drawn): the TGI in the experiment with NCI-H460 lung was greater than 100 µM; with A498 renal, greater than 100 µM; with MALME-3M melanoma it was 65.1 µM; in the experiment on UACC-257 melanoma, 79.5 µM; with TK-10 renal, 86 µM.
For the molecule `CCOC(=O)c1oc2c(OC)ccc3c2c1CCC3`, the TGI in the experiment on NCI-H460 lung is greater than 100 µM; in the experiment on A498 renal, greater than 100 µM; in the experiment with MALME-3M melanoma, greater than 100 µM; in the experiment on UACC-257 melanoma, 10.9 µM; with TK-10 renal, greater than 100 µM.
As for `NC(Cc1ccccc1)C(=O)OCN1C(=O)C2C3C=CC(C2C1=O)C1C2C(=O)N(COC(=O)C(N)Cc4ccccc4)C(=O)C2C31` (stereo not drawn), the GI50 in the experiment on CAKI-1 renal is 37.8 µM and 77.2 µM; in the experiment with A498 renal it was > 100 µM and 46 µM. For the same molecule, the TGI was greater than 100 µM with CAKI-1 renal; 27.4 µM and 30.8 µM with NCI-H460 lung; greater than 100 µM in the experiment with A498 renal; 67.1 µM and 50.1 µM with UACC-257 melanoma; > 100 µM and 72.1 µM with NCI-H226 lung; greater than 100 µM in the experiment with TK-10 renal.
On to `CCc1cccc(C(C)C)c1NC(=O)CC1Sc2ccccc2NC1=O` (stereo not drawn), for which the TGI in the experiment on CAKI-1 renal, in the experiment with NCI-H460 lung, in the experiment with A498 renal, in the experiment with MALME-3M melanoma, in the experiment on UACC-257 melanoma and in the experiment with NCI-H226 lung was greater than 100 µM throughout. The TGI in the experiment on TK-10 renal was greater than 100 µM.
Take `O=C1NC(=O)C(C(=O)C(=O)Nc2cc(Cl)ccc2Cl)C(=O)N1`: the TGI in the experiment on NCI-H460 lung, in the experiment on A498 renal, in the experiment with MALME-3M melanoma, with UACC-257 melanoma and in the experiment with TK-10 renal was greater than 100 µM throughout.
For `O=C1c2c(O)cccc2C(C(=O)CCCCCC(=O)C2c3cccc(O)c3C(=O)c3c(O)cccc32)c2cccc(O)c21`, the GI50 in the experiment with CAKI-1 renal was 10.6 µM; with NCI-H460 lung, 1.57 µM; in the experiment with A498 renal, 21 µM; in the experiment on MALME-3M melanoma, 8.38 µM; in the experiment on UACC-257 melanoma, 3.9 µM; in the experiment with NCI-H226 lung, 4.97 µM. For the same molecule, the GI50 in the experiment with TK-10 renal was 8.83 µM. The TGI in the experiment on CAKI-1 renal is 10.2 µM and 19.9 µM; in the experiment on NCI-H460 lung, 1.62 µM and 5.23 µM; in the experiment with A498 renal, 10.9 µM and 37.6 µM; in the experiment on MALME-3M melanoma, 5.87 µM and 15.3 µM; in the experiment on UACC-257 melanoma, 2.73 µM and 10.6 µM; in the experiment with NCI-H226 lung it was 7.29 µM and 11.6 µM. In the experiment with TK-10 renal, the TGI is 7.61 µM and 18.7 µM.
Regarding `CCCCCCCCSC(=O)NCCCC`, the TGI in the experiment with CAKI-1 renal was greater than 100 µM; with NCI-H460 lung, greater than 100 µM; with A498 renal, greater than 100 µM; in the experiment on MALME-3M melanoma, 68.5 µM; with TK-10 renal, greater than 100 µM.
Regarding `CC(Oc1cc2oc(=O)cc(-c3ccccc3)c2cc1Cl)C(=O)O` (stereo not drawn), the TGI in the experiment on CAKI-1 renal, with NCI-H460 lung, in the experiment with A498 renal, in the experiment on MALME-3M melanoma, in the experiment with UACC-257 melanoma and with NCI-H226 lung was greater than 100 µM throughout. The same molecule displayed a TGI in the experiment with TK-10 renal greater than 100 µM.
In the case of `CC(=O)OCCOCn1c2ccccc2c2c3c(c4c5ccccc5n(COCCOC(C)=O)c4c21)C(=O)N(Cc1ccccc1)C3=O`, the TGI in the experiment on NCI-H460 lung, with A498 renal, with MALME-3M melanoma, in the experiment with UACC-257 melanoma, with NCI-H226 lung and in the experiment with TK-10 renal was greater than 100 µM throughout.
`CC(=O)Nc1ccccc1-c1nc2ccccc2nc1-c1ccccc1`: the TGI in the experiment with CAKI-1 renal, in the experiment with NCI-H460 lung, with A498 renal and with UACC-257 melanoma was greater than 100 µM in each case.
